Measured values taken from PMC8838850, “Synthesis, Antimicrobial, Anti-Virulence and Anticancer Evaluation of New 5(4H)-Oxazolone-Based Sulfonamides” (Molecules, 2022).
≈ marks a conversion by molar mass, not a printed value.

What was measured:
Panc-1 = assay: Caspase-Glo 3/7 apoptosis assay; format: cell-based, human; conditions: ½ IC50, IC50 or 2 ×IC50 for 6 h, vs untreated controls
Description: Caspases play critical roles in apoptosis. The apoptotic effects of selected compounds 5, 7 and 10 on pancreatic cell line Panc-1 were tested by quantification of caspase 3/7 using Caspase-Glo 3/7 assay kit (Promega, Fitchburg, MA, USA) as previously described. Briefly, cells were treated with or without compounds 5, 7 and 10 (½ IC50, IC50, or 2 ×IC50) for 6 h. The prepared reagent Caspase-Glo 3/7 was added in equal volumes to cells, gently mixed, and incubated for 60 min at room temperature. The luminescence was measured, and the activity of caspase was presented as a percentage change from the untreated control.

[1] = tested on: Candida albicans ATCC 10231; assay: MIC by agar dilution (antifungal); format: cell-based; conditions: Candida albicans, ATCC10231, Candida albicans ATCC 10231, read-out: Minimum inhibitory concentration (MIC)
[2] = tested on: Escherichia coli ATCC 10536; assay: MIC by agar dilution; format: cell-based; conditions: ATCC10536, 37 °C, 20 h, read-out: Minimum inhibitory concentration (MIC)
Description: (§1) The MICs of the synthesized compound were determined by agar dilution method according to the Clinical Laboratory and Standards Institute Guidelines (CLSI, 2015). Briefly, the tested strains were incubated overnight in tryptic soy broth (TSB) (Oxoid, United Kingdom) and then diluted in Muller–Hinton (MH) broth (Oxoid, United Kingdom) to turbidity approximating to the equivalent of 0.5 McFarland standard. The suspensions were further diluted with sterile saline (1:10) and standardized inoculums (approximately 10^4 CFU per spot) were spotted on the surfaces of MH agar (Oxoid, United Kingdom) plates containing different concentrations of tested compounds and a control plate. The MICs were the lowest concentrations that inhibit growth on the plates after incubation at 37 °C for 20 h.

[3] = tested on: Micrococcus spp. ATCC 10240; assay: MIC by agar dilution; format: cell-based; conditions: ATCC10240, 37 °C, 20 h, read-out: Minimum inhibitory concentration (MIC)
Description: as §1

[4] = tested on: Staphylococcus aureus ATCC 6538; assay: MIC by agar dilution; format: cell-based; conditions: ATCC6538, 37 °C, 20 h, read-out: Minimum inhibitory concentration (MIC)
Description: as §1

[5] = tested on: Salmonella typhimurium ATCC 14028; assay: MIC by agar dilution; format: cell-based; conditions: Salmonella enterica, 37 °C, 20 h, read-out: Minimum inhibitory concentration (MIC)
Description: as §1

[6] = tested on: Staphylococcus epidermidis ATCC 12228; assay: MIC by agar dilution; format: cell-based; conditions: ATCC12228, 37 °C, 20 h, read-out: Minimum inhibitory concentration (MIC)
Description: as §1

[7] = tested on: Klebsiella pneumoniae ATCC 27736; assay: MIC by agar dilution; format: cell-based; conditions: ATCC27736, 37 °C, 20 h, read-out: Minimum inhibitory concentration (MIC)
Description: as §1

S. aureus ATCC 6538 = assay: Biofilm formation assay (crystal violet, light microscopy); format: cell-based, Staphylococcus aureus; conditions: sub-MIC (½ MIC), crystal violet method
Description: Bacterial virulence is regulated via a quorum sensing (QS) system in an inducer/receptor manner. Diminishing bacterial virulence is an advantageous strategy to decrease the development of bacterial resistance. In this direction, anti-virulence and anti-QS activities have been explored in several studies as reviewed. The ability of P. aeruginosa or S. aureus to form biofilms was assayed in the absence or presence of tested compounds at sub-MIC. […] The experiment was conducted in triplicate and a one-way ANOVA test was employed to test the statistical significance using Graphpad Prism 8 software. The results were significant statistically where p values < 0.05. Moreover, microscopic visualization of biofilm under the effect of tested compounds was also performed by light microscopy. Representative images for the inhibitory effects on S. aureus and P. aeruginosa biofilm formation are shown (Figure 3C,D). The microscopic images show a marked reduction in both the thickness of and surface area covered by the biofilms in presence of the tested compound.
In order to evaluate the ability of the tested compounds to inhibit the biofilm formation, a strong biofilm forming P. aeruginosa ATCC 47,085 [47, 66] and S. aureus ATCC 6538 [67] strains were used. As described earlier, suspensions of tested strains were prepared from overnight cultures in TSB and their optical densities were adjusted to OD600 of 0.4 (1×10^8 CFU/mL). Aliquots of 10 μL of the suspensions were added to 1 mL amounts of fresh TSB with or without sub-MICs of tested compounds. […] The non-adherent cells were removed, the wells were washed with sterile PBS, and left to dry. The attached biofilm forming cells were fixed with methanol for 25 min and stained with 1% crystal violet for 30 min. The excess dye was washed out and the crystal violet staining adhered biofilm forming cells were eluted by glacial acetic acid (33%). The experiment was conducted in triplicate and the absorbance was measured at 590 nm. The absorbances of tested strains treated with different compounds were expressed as mean ± standard error of percentage change from untreated tested strains control. The percentages of biofilm inhibition were calculated employing the following formula: (absorbance of control—absorbance in presence of tested compounds)/absorbance of control.

P. aeruginosa = assay: Quantification of pyocyanin pigment; format: cell-based, Pseudomonas aeruginosa; conditions: sub-MIC
Description: The ability of selected compounds 5, 7 and 10 at sub-MIC to reduce the P. aeruginosa pyocyanin pigment production was estimated as described earlier. P. aeruginosa overnight cultures were prepared and diluted in LB broth at 600 nm (O.D0.4), and 10 μL of the bacterial suspensions were added to 1mL broth tubes containing, or not, tested drugs at sub-MIC. After incubation for 48 h at 37 °C, the tubes were centrifuged and the pyocyanin in the supernatant was assayed spectrophotometrically at 691 nm by a Biotek spectrofluorometer (Biotek, Winooski, VT, USA). The experiment was repeated in triplicate, and the pyocyanin absorbances in the presence of tested compounds were expressed as mean ± standard error of percentage change from untreated controls. The percentages of pigment production were calculated using the formula: (absorbance of control − absorbance in presence of tested compounds)/absorbance of control.

S. aureus = assay: Quantification of staphyloxanthin pigment; format: cell-based, Staphylococcus aureus; conditions: sub-MIC
Description: Staphyloxanthin and intermediate carotenoids were extracted from S. aureus treated or untreated with compounds 5, 7 and 10 at sub-MIC as described. Bacterial cells were cultivated in TSB at 37 °C for 24 h, then cells were collected by centrifugation, and washed twice with phosphate-buffered saline (PBS). The obtained pellets were used to extract staphyloxanthin with methanol. The pellets (5 gm of) were resuspended in 20 mL methanol, and heated with gentle stirring at 55 °C in a water bath for 5 min. Then, the methanol extract liquids were cooled and centrifuged, and the absorbances of the produced staphyloxanthin were quantified spectrophotometrically at 450 nm (Biotek, Winooski, VT, USA). The experiment was repeated in triplicate, and the pigment absorbances in the presence of tested compounds were expressed as mean ± standard error of percentage change from untreated controls. The percentages of pigment production were calculated using the formula: (absorbance of control − absorbance in presence of tested compounds)/absorbance of control.

Compound	Apoptotic effect, caspase 3/7 levels (Panc-1)	MIC [1]	MIC [2]	MIC [3]	MIC [4]	MIC [5]	MIC [6]	MIC [7]	Inhibition of biofilm formation (S. aureus ATCC 6538)	Production of pigment pyocyanin (P. aeruginosa)	Production of pigment staphyloxanthin (S. aureus)
Cc1ccc(S(=O)(=O)Nc2ccccc2C2=N/C(=C/c3ccccc3)C(=O)O2)cc1 [Compound 9a, (E)-N-(2-(4-Benzylidene-5-oxo-4,5-dihydrooxazol-2-yl)phenyl)-4-methylbenzenesulfonamide]	triggered apoptosis through increasing the amounts of activated caspases 3/7	16 µg/mL (≈ 38.2 µM)	2 µg/mL (≈ 4.78 µM)	4 µg/mL (≈ 9.56 µM)	4 µg/mL (≈ 9.56 µM)	4 µg/mL (≈ 9.56 µM)	4 µg/mL (≈ 9.56 µM)	4 µg/mL (≈ 9.56 µM)	highest abilities to inhibit biofilm formation	significantly decreased the production	significantly decreased the production
COc1ccc(/C=C2/N=C(c3ccccc3NS(=O)(=O)c3ccc(C)cc3)OC2=O)cc1 [Compound 9b, (E)-N-(2-(4-(4-Methoxybenzylidene)-5-oxo-4,5-dihydrooxazol-2-yl)phenyl)-4-methylbenzenesulfonamide]	triggered apoptosis through increasing the amounts of activated caspases 3/7	> 32 µg/mL	2 µg/mL (≈ 4.46 µM)	1 µg/mL (≈ 2.23 µM)	2 µg/mL (≈ 4.46 µM)	4 µg/mL (≈ 8.92 µM)	1 µg/mL (≈ 2.23 µM)	4 µg/mL (≈ 8.92 µM)	highest abilities to inhibit biofilm formation	significantly decreased the production	significantly decreased the production
Cc1ccc(S(=O)(=O)Nc2ccccc2C2=N/C(=C/c3ccc([N+](=O)[O-])cc3)C(=O)O2)cc1 [Compound 9f, (E)-4-Methyl-N-(2-(4-(4-nitrobenzylidene)-5-oxo-4,5-dihydrooxazol-2-yl)phenyl)benzenesulfonamide]	triggered apoptosis through increasing the amounts of activated caspases 3/7	> 32 µg/mL	4 µg/mL (≈ 8.63 µM)	2 µg/mL (≈ 4.32 µM)	2 µg/mL (≈ 4.32 µM)	2 µg/mL (≈ 4.32 µM)	2 µg/mL (≈ 4.32 µM)	2 µg/mL (≈ 4.32 µM)	highest abilities to inhibit biofilm formation	significantly decreased the production	significantly decreased the production
